Data set [1] concerns the target T1, Aldo-keto reductase family 1 member C2 (Homo sapiens, UniProt P52895).
T1 sequence (P52895 whole entry): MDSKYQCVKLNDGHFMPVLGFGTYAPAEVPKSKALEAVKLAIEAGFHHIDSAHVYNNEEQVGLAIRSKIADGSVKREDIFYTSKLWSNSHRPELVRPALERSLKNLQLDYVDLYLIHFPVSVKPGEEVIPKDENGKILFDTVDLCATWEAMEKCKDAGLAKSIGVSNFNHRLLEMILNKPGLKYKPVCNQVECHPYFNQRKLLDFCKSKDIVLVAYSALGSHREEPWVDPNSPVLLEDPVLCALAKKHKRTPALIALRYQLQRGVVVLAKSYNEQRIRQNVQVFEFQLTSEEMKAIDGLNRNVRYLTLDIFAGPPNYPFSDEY
Put plainly: Drug metabolism in human recombinant AKR1C2 expressing HEK293 cells treated with 20 uM boceprevir assessed as 100 uM diazepam-mediated inhibition of AKR1C2-mediated metabolite formation after 120 mins in presence of NADPH by LC-MS/MS/FSA method. The format is ADME, cell-based. The following applies: hek293, 2 h. Also noted: interact cpd dose 100 uM.

Data set [2] deals with T2, Aldo-keto reductase family 1 member C3 (Homo sapiens, UniProt P42330).
T2 sequence (P42330 whole entry): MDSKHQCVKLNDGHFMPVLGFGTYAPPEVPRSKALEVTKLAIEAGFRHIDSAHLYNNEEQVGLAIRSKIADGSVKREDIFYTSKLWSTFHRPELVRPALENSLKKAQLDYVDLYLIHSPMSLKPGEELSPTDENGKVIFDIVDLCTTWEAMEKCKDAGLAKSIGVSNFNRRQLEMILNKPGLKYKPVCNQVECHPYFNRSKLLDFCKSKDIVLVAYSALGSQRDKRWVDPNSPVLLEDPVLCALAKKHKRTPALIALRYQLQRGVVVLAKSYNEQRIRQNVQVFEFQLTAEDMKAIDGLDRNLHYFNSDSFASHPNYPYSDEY
Put plainly: Drug metabolism in human recombinant […] HEK293 cells treated with 20 uM boceprevir assessed as 100 uM diazepam-mediated inhibition of AKR1C3-mediated metabolite formation after 120 mins in presence of NADPH by LC-MS/MS/FSA method. The format is ADME, cell-based. Also noted: interact cpd dose 100 uM. The conditions noted are these: hek293, 2 h.

Data set [3] deals with T1, Aldo-keto reductase family 1 member C2. The data set can be described thus: Drug metabolism in human recombinant AKR1C2 expressing HEK293 cells treated with 20 uM boceprevir assessed as 1 mM BNPP-mediated inhibition of AKR1C2-mediated metabolite formation after 120 mins in presence of NADPH by LC-MS/MS/FSA method. The following applies: hek293, 2 h. The format is ADME, cell-based. Also noted: interact cpd dose 1 mM.

Data set [4] in a line: Drug excretion in human feces assessed as carbonyl reduction pathway related metabolites level. It counts as ADME. Also noted: dosed compound name [14C]boceprevir.
Data set [5] is described as follows: Drug metabolism in human liver S9 fraction at 20 uM assessed as (1R,2S,5S)-N-((2S,3R)-4-amino-1-cyclobutyl-3-hydroxy-4-oxobutan-2-yl)-3-((S)-2-(3-tert-butylureido)-3,3-dimethylbutanoyl)-6,6-dimethyl-3-azabicyclo[3.1.0]hexane-2-carboxamide formation in presence of flufenamic acid by LC-MS/MS/FSA method. The format is ADME, subcellular. The conditions noted are these: s9, 20 µM.

The nature of data set [6]: Drug metabolism in human liver S9 fraction at 20 uM assessed as (1R,2S,5S)-N-((2S,3R)-4-amino-1-cyclobutyl-3-hydroxy-4-oxobutan-2-yl)-3-((S)-2-(3-tert-butylureido)-3,3-dimethylbutanoyl)-6,6-dimethyl-3-azabicyclo[3.1.0]hexane-2-carboxamide formation in presence of menadione by LC-MS/MS/FSA method. The format is ADME, subcellular. The following applies: s9, 20 µM.
The target in the next data set is T3, Cytochrome P450 2J2 (Homo sapiens, UniProt P51589).
T3 sequence (P51589 whole entry): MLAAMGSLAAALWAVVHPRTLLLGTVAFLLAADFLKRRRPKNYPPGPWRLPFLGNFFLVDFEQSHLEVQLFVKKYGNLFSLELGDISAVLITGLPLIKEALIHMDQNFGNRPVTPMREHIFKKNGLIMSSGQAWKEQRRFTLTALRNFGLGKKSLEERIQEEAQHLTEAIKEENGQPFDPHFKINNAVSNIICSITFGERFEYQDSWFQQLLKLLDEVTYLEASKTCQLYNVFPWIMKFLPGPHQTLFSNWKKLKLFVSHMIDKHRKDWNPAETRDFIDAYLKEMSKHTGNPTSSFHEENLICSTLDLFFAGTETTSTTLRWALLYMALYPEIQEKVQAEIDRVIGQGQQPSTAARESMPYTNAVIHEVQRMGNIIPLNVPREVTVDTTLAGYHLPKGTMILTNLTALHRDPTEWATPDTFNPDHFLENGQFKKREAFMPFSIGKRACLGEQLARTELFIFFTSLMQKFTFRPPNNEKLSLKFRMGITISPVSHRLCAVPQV
The data set can be described thus: Drug metabolism assessed as human CYP2J2-mediated compound formation from 5 to 20 uM [14C]boceprevir after 120 mins by LC-MS/FSA method relative to total [14C]boceprevir. The format is ADME. The conditions noted are these: recombinant enzyme, 2 h.

The nature of data set [7]: Drug metabolism in human liver S9 fraction at 20 uM assessed as (1R,2S,5S)-N-((2S,3R)-4-amino-1-cyclobutyl-3-hydroxy-4-oxobutan-2-yl)-3-((S)-2-(3-tert-butylureido)-3,3-dimethylbutanoyl)-6,6-dimethyl-3-azabicyclo[3.1.0]hexane-2-carboxamide formation in presence of allopurinol by LC-MS/MS/FSA method. The following applies: s9, 20 µM. It counts as ADME, subcellular.
The target of data set [8] is T2, Aldo-keto reductase family 1 member C3. The data set can be described thus: Activity of human recombinant AKR1C3 expressed in HEK293 cells assessed as ratio of Vmax to Km for (1R,2S,5S)-N-((2S,3R)-4-amino-1-cyclobutyl-3-hydroxy-4-oxobutan-2-yl)-3-((S)-2-(3-tert-butylureido)-3,3-dimethylbutanoyl)-6,6-dimethyl-3-azabicyclo[3.1.0]hexane-2-carboxamide formation per mg protein after 120 mins in presence of NADPH by LC-MS/MS/FSA method. The conditions noted are these: hek293, 2 h. It counts as ADME, cell-based.

Data set [9] can be described thus: Drug metabolism in human liver S9 fraction at 20 uM assessed as (1R,2S,5S)-N-((2S,3R)-4-amino-1-cyclobutyl-3-hydroxy-4-oxobutan-2-yl)-3-((S)-2-(3-tert-butylureido)-3,3-dimethylbutanoyl)-6,6-dimethyl-3-azabicyclo[3.1.0]hexane-2-carboxamide formation in presence of mefenamic acid by LC-MS/MS/FSA method. It counts as ADME, subcellular. The conditions noted are these: s9, 20 µM.

In data set [10] the test system is Liver cytosol. The data set can be described thus: Ratio of Vmax to Km for drug metabolism in human liver cytosol assessed as (1R,2S,5S)-N-((2R,3R)-4-amino-1-cyclobutyl-3-hydroxy-4-oxobutan-2-yl)-3-((S)-2-(3-tert-butylureido)-3,3-dimethylbutanoyl)-6,6-dimethyl-3-azabicyclo[3.1.0]hexane-2-carboxamide formation per mg protein after 60 mins by LC-MS/MS/FSA method. The format is ADME. The conditions noted are these: 1 h.

For data set [11], the system named is Liver cytosol. Put plainly: Drug metabolism in human liver cytosol at 20 uM assessed as (1R,2S,5S)-N-((2R,3R)-4-amino-1-cyclobutyl-3-hydroxy-4-oxobutan-2-yl)-3-((S)-2-(3-tert-butylureido)-3,3-dimethylbutanoyl)-6,6-dimethyl-3-azabicyclo[3.1.0]hexane-2-carboxamide formation at 20 uM after 60 mins in presence of AKR inhibitor ibuprofen by LC-MS/MS/FSA method. It counts as ADME. The conditions noted are these: 1 h.

The target in another data set is Cytochrome P450 3A4 (Homo sapiens, UniProt P08684). Put plainly: Drug metabolism assessed as human CYP3A4-mediated compound formation from 5 uM [14C]boceprevir after 120 mins by LC-MS/FSA method relative to total [14C]boceprevir. The format is ADME. The conditions noted are these: recombinant enzyme, 2 h, BLD = below limit of detection.
Chain of Cytochrome P450 3A4 (P08684 whole entry): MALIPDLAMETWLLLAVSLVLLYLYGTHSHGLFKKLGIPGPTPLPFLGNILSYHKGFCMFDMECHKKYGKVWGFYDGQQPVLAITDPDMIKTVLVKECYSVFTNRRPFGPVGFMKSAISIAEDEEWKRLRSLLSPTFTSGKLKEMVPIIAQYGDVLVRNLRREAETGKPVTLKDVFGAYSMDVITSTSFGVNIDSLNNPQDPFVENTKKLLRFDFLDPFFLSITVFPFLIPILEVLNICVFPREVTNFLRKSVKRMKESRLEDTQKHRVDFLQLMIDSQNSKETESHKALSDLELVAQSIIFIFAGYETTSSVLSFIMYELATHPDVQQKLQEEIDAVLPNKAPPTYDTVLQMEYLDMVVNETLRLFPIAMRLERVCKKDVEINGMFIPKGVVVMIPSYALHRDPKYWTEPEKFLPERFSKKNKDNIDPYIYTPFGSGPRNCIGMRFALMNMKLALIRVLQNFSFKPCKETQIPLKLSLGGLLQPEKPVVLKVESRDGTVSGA

As for `CC(C)(C)NC(=O)N[C@H](C(=O)N1C[C@H]2[C@@H]([C@H]1C(=O)N[C@@H](CC1CCC1)[C@@H](O)C(N)=O)C2(C)C)C(C)(C)C`, the “inhibition (INH)” value in [1] is recorded as more than 89%; in data set [2] it was 80%; in data set [3] it was 82%.
Take `CC(C)(C)NC(=O)N[C@H](C(=O)N1C[C@H]2[C@@H]([C@H]1C(=O)NC(CC1CCC1)C(=O)C(N)=O)C2(C)C)C(C)(C)C` (stereo partly drawn) [BOCEPREVIR]: the Radiolabel recovery in [4] was found to be 22%. Besides, the Compound recovery result in [5] is “metabolite_not_detected”; in data set [6] it was “metabolite_not_detected”; on Cytochrome P450 2J2, “metabolite_not_detected”; in data set [7], “metabolite_detected”; in [9] it was “metabolite_not_detected”. For the same molecule, in data set [8], the Vmax/Km is 14.67 µL/min.
Turning to `CC(C)(C)NC(=O)N[C@H](C(=O)N1C[C@H]2[C@@H]([C@H]1C(=O)N[C@H](CC1CCC1)C(=O)C(N)=O)C2(C)C)C(C)(C)C`, the Vmax/Km in the data set on Liver cytosol [10] is 30.9 µL/min. In addition, the Compound recovery result in the data set with Liver cytosol [11] is reported as “metabolite_not_detected”; on Cytochrome P450 3A4, “BLD”.

These data come from ChEMBL document CHEMBL3526141, “Characterization of human liver enzymes involved in the biotransformation of boceprevir, a hepatitis C virus protease inhibitor” (Drug Metab Dispos, 2011).
